In US10023541B2, “Urea compounds and their use as enzyme inhibitors” (BIAL-PORTELA & CA, S.A., priority 2012, dated 2018):
Where two headings read alike, the source gives them in different places.

Columns and labels:
FAAH [1] = target: T1, FAAH (Mus musculus, UniProt O08914); assay: In vivo protocol: FAAH activity in tissue homogenates after oral dosing of mice; details: for Peripheral Selectivity: FAAH activity in liver divided by FAAH activity in brain, lower = more peripherally selective; for activity at 3 mg/kg / activity at 0.1 mg/kg / activity at 1 mg/kg / activity at 10 mg/kg: mouse
T1 construct: A fragment of liver, left lung lobe and brain without cerebellum were removed; from tissue; host or cells: mouse brain, liver and lung homogenates
T1 sequence (O08914 1-579): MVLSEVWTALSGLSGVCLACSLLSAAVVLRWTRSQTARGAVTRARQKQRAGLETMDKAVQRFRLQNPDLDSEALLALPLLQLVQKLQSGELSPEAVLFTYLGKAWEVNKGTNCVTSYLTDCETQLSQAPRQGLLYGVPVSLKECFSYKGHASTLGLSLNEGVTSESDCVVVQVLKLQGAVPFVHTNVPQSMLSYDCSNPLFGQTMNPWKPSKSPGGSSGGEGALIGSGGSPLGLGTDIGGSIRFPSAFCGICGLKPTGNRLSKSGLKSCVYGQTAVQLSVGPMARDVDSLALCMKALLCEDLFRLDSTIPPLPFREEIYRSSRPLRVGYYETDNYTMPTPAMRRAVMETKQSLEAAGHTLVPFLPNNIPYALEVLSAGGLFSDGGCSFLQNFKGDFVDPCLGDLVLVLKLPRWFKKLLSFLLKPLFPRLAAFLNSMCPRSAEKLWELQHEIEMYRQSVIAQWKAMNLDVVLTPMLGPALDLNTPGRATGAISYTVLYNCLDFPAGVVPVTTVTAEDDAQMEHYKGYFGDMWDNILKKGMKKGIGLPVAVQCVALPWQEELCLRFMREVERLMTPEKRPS
Experimental: In vivo testing was performed according to the protocol described below. BRh (brain homogenate) indicates inhibition in central nervous tissue, in this case, brain, and LVh (liver homogenate) indicates inhibition in peripheral tissue, in this case, liver. The controls were the reaction mix minus the test compounds. Therefore, a low value for the test compound indicates a strong inhibitor.
The animals used for experiments were male NMRI mice (weighing 27-44 g) obtained from Interfauna Ibérica (Spain). Mice were kept 5 per cage, under controlled environmental conditions (12 hr light/dark cycle and room temperature 221° C.). Food and tap water were allowed ad libitum and the experiments were all carried out during daylight hours.
[…] compounds via oral route (8 ml/kg; compound suspended in 0.5% carboxymethylcellulose (CMC) or solubilized in water) or vehicle (controls) using animal feeding stainless steel curve needles (Perfectum, U.S.A.). Fifteen minutes before sacrifice animal were anesthetized with pentobarbital 60 mg/kg administered intraperitoneally. A fragment of liver, left lung lobe and brain without cerebellum were removed and put in plastic vials containing membrane buffer (3 mM MgCl2, 1 mM EDTA, 50 mM Tris HCl pH 7.4). Tissues were stored at −30° C. until analysis.
Animals were always fasted overnight before administration of compounds except for time points of >18 h, where food was removed on the morning of day of administration and the compound was administered in the afternoon of the same day. Animals were then given water but nothing else.
Tissues were thawed on ice and were homogenized in 10 volumes of membrane buffer (3 mM MgCl2, 1 mM EDTA, 50 mM Tris HCl pH 7.4) with either Potter-Elvejhem (brains—8 strokes at 500 rpm) or Heidolph Diax (livers—2 strokes at position 5 for 20 sec with 30 sec pauses).
Total protein in tissues was determined with the BioRad Protein Assay (BioRad) using a standard curve of BSA (50-250 μg/ml).
Reaction mix (total volume of 200 μl) contained: 2 μM AEA (2 μM AEA+5 nM ^3H-AEA), 0.1% fatty acid free BSA, 15 μg (brain), 5 μg (liver) or 50 μg (lung) protein, in 1 mM EDTA, 10 mM Tris pH 7.6. After a 15 min pre-incubation period at 37° C. reaction was started by the addition of the substrate solution (cold AEA+radiolabelled AEA+BSA). Reaction was carried out for 10 min (brain and lung) or 7 min (liver) before termination by the addition of 400 μl activated charcoal suspension (8 g charcoal in 32 ml 0.5 M HCl in continuous agitation). After a 30 min incubation period at room temperature with agitation, charcoal was sedimented by centrifugation in microfuge (10 min at 13000 rpm). 200 μl of the supernatant were added to 800 μl Optiphase Supermix scintillation cocktail previously distributed in 24-well plates. Counts per minute (cpm) were determined in a MicrobetaTriLux scintillation counter.
In each assay blanks (without protein) were prepared.
The percentage of remaining enzymatic activity was calculated with respect to controls and after blank subtraction.

[2] = CYPs metabolic stability assay in MLM; assay type: in vitro ADME, mouse; details: 1 h, 50 μM; for Metabolic Stability (% of Remaining) Mouse CYP+: with NADPH; for Metabolic Stability (% of Remaining) Mouse CYP−: without NADPH
Experimental: (§1) Stability of the test compounds was performed in MLM (mouse liver microsomes) or HLM (human liver microsomes) in the presence and in the absence of NADPH.
(§2) The stability was measured using the incubation mixture (100 μl total volume) contained 1 mg/ml total protein, MgCl2 5 mM and 50 mM K-phosphate buffer. Samples were incubated in the presence and in the absence of NADPH 1 mM. Reactions were pre-incubated 5 min and the reaction initiated with the compound under test (5 μM for HLM and 50 μM for MLM). Samples were incubated for 60 min in a shaking water bath at 37° C. The reaction was stopped by adding 100 μl of acetonitrile. Samples were then centrifuged, filtered and supernatant injected in HLPC-MSD. Test compounds were dissolved in DMSO and the final concentration of DMSO in the reaction was below 0.5% (v/v). At TO acetonitrile was added before adding the compound. All experiments were performed with samples in duplicate.
(§3) The stability data are given as % of remaining compound after 1 h exposure to MLM or HLM. 100% means no metabolic reaction at all and 0% corresponds to full enzymatic degradation. “CYP−” refers to the absence of cofactor (NADPH) which is essential for CYP metabolic reactions. Therefore “CYP−” can be regarded as control value. “CYP+” refers to the presence of cofactor and the enzymatic degradation may take place according to the stability of the test compound.

FAAH [3] = target: T1, FAAH; assay: ED50 determination of FAAH inhibition in liver after p.o. administration; assay type: in vivo; details: po, read-out: Liver ED50 (95CI)
Source text: Confidence intervals (95%) are included.

[4] = CYPs metabolic stability assay in HLM; assay type: in vitro ADME, human; details: 1 h, 5 μM; for Metabolic Stability (% of Remaining) Human CYP+: with NADPH; for Metabolic Stability (% of Remaining) Human CYP−: without NADPH
Experimental: as §1, §2, §3

FAAH [5] = target: T2, FAAH (Rattus norvegicus, UniProt P97612); assay: Determination of IC50 in rat brain membrane FAAH enzymatic assay (3H-AEA); assay type: biochemical; details: rat brain membranes, 2 μM AEA, 15 min preincubation
T2 construct: Frozen brains from 4 Wistar rats were homogenized; from tissue; host or cells: Wistar rat brain membranes
T2 sequence (P97612 1-579): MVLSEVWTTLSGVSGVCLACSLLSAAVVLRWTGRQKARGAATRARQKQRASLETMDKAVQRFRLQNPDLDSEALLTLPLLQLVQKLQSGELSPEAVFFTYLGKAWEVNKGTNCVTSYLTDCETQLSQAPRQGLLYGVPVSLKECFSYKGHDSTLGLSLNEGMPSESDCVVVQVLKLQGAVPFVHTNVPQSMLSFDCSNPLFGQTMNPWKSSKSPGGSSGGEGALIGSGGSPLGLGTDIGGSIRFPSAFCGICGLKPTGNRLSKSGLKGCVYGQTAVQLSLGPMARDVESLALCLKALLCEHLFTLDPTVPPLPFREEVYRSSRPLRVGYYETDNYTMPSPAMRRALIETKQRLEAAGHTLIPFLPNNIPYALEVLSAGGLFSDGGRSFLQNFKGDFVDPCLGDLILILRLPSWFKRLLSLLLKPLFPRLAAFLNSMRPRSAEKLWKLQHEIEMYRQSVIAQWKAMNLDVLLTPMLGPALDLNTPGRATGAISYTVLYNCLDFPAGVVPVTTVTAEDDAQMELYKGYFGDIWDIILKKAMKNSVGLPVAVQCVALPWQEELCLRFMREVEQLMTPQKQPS
Experimental: Anandamide[ethanolamine-1-^3H-] was obtained from American Radiochemicals—with a specific activity of 60 Ci/mmol. All other reagents were obtained from Sigma-Aldrich. Optiphase Supermix was obtained from Perkin Elmer and activated charcoal was obtained from Sigma.
Frozen brains from 4 Wistar rats were homogenized in 20 ml 1 mM MgCl2, 20 mM HEPES (4-(2-hydroxyethyl)-1-piperazineethanesulfonic acid) pH 7.0 with Potter-Elvejhem (8 strokes at 500 rpm). Homogenates were centrifuged for 20 min at 36000 g at 4° C. (Beckman, 70Ti rotor). Pellets were resuspended in 15 ml of the same buffer and centrifuged under the same conditions. Pellets were resuspended in 15 ml of the same buffer and incubated for 15 min at 37° C. after which they were centrifuged for 20 min at 36000 g at 4° C. Each pellet was then resuspended in 10 ml 3 mM MgCl2, 1 mM EDTA (Ethylenediaminetetraacetic acid), 50 mM Tris (2-Amino-2-hydroxymethyl-propane-1,3-diol) pH 7.4 and protein determined with the BioRad Protein Assay (BioRad) using a standard curve of BSA (Bovine Serum Albumin) (50-250 μg/ml).
Reaction mix (total volume of 200 μl) contained: 2 μM AEA (2 μM AEA+5 nM ^3H-AEA), 0.1% fatty acid free BSA, 5 or 10 μg protein, in 1 mM EDTA, 10 mM Tris pH 7.6 and compound 1 at various concentrations. […] Counts per minute (CPM) or disintegrations per minute (DPM) were determined in a MicrobetaTriLux scintillation counter. […]

[6] = po, brain homogenate, 3 mg/kg po, 8 h, % remaining activity vs control, read-out: FAAH Activity (%) Br. h. 3 mg/kg. 8 h. po
[7] = po, liver homogenate, 3 mg/kg po, 8 h, % remaining activity vs control, read-out: FAAH Activity (%) Lv. h. 3 mg/kg. 8 h. po
[8] = 1 h, 3 mg/kg, read-out: FAAH Activity (%) mouse Liver
[9] = 8 h, 0.1 mg/kg, read-out: FAAH Activity (%) mouse Liver
[10] = 8 h, read-out: FAAH Activity (%) mouse Liver
[11] = 8 h, 3 mg/kg, read-out: FAAH Activity (%) mouse Liver

Peripheral Selectivity (FAAH [1]; 3 mg/kg po, 8 h)	activity at 3 mg/kg (FAAH [1]; [6])	activity at 3 mg/kg (FAAH [1]; [7])	ED50 (FAAH [3]; Time 8 h)	SMILES	Metabolic Stability (% of Remaining) Mouse CYP+ [2]	Metabolic Stability (% of Remaining) Mouse CYP− [2]	Metabolic Stability (% of Remaining) Human CYP+ [4]	Metabolic Stability (% of Remaining) Human CYP− [4]	activity at 3 mg/kg (FAAH [1]; [8])	activity at 0.1 mg/kg (FAAH [1]; [9])	activity at 1 mg/kg (FAAH [1]; [10])	activity at 3 mg/kg (FAAH [1]; [11])	activity at 10 mg/kg (FAAH [1]; [10])	IC50 (FAAH [5])	ED50 (FAAH [3])	factor by which most peripherally selective compound (FAAH [1]; compared with comparator compounds, 3 mg/kg po, 8 h)	fold more potent than comparator compound 2 (FAAH [1]; mouse liver, 0.1 mg/kg, 8 h post-dose)
0.235	86.2%	20.3%		CN(C(=O)n1cnc(-c2cccc(NC(=N)N)c2)c1)C1CCCCC1 [Comparator Compound 1, N-cyclohexyl-4-(3-guanidinophenyl)-N-methyl-1H-imidazole-1-carboxamide]													
0.017	121%	2.1%	0.17 mg/kg	CN(C(=O)n1cnc(-c2ccc(F)c(O)c2)c1)C1CCCC1 [Comparator Compound 2, N-cyclopentyl-4-(4-fluoro-3-hydroxyphenyl)-N-methyl-1H-imidazole-1-carboxamide]	53%	92%	70%	92%	17%	73.8%	4.9%	2.1%	1.2%				

SMILES	Peripheral Selectivity (FAAH [1]; 3 mg/kg po, 8 h)	activity at 3 mg/kg (FAAH [1]; [6])	activity at 3 mg/kg (FAAH [1]; [7])	ED50 (FAAH [3]; Time 8 h)	Metabolic Stability (% of Remaining) Mouse CYP+ [2]	Metabolic Stability (% of Remaining) Mouse CYP− [2]	Metabolic Stability (% of Remaining) Human CYP+ [4]	Metabolic Stability (% of Remaining) Human CYP− [4]	activity at 3 mg/kg (FAAH [1]; [8])	activity at 0.1 mg/kg (FAAH [1]; [9])	activity at 1 mg/kg (FAAH [1]; [10])	activity at 3 mg/kg (FAAH [1]; [11])	activity at 10 mg/kg (FAAH [1]; [10])	IC50 (FAAH [5])	ED50 (FAAH [3])	factor by which most peripherally selective compound (FAAH [1]; compared with comparator compounds, 3 mg/kg po, 8 h)	fold more potent than comparator compound 2 (FAAH [1]; mouse liver, 0.1 mg/kg, 8 h post-dose)
CN(C(=O)n1cnc(-c2cccc(NC(N)=O)c2)c1)C1CCCC1 [Compound 1, N-Cyclopentyl-N-methyl-4-(3-ureidophenyl)-1H-imidazole-1-carboxamide]	0.008	85.1%	0.7%		96%	95%	82%	99%	1.9%	6.4%	1.6%	0.7%	0.4%	27 nM	0.03 mg/kg	> 2	more than 10 fold
